Biological target: T1, TrkA kinase (Homo sapiens, UniProt P04629)
T1 construct: purchased Upstate, USA
T1 sequence (P04629 33-796): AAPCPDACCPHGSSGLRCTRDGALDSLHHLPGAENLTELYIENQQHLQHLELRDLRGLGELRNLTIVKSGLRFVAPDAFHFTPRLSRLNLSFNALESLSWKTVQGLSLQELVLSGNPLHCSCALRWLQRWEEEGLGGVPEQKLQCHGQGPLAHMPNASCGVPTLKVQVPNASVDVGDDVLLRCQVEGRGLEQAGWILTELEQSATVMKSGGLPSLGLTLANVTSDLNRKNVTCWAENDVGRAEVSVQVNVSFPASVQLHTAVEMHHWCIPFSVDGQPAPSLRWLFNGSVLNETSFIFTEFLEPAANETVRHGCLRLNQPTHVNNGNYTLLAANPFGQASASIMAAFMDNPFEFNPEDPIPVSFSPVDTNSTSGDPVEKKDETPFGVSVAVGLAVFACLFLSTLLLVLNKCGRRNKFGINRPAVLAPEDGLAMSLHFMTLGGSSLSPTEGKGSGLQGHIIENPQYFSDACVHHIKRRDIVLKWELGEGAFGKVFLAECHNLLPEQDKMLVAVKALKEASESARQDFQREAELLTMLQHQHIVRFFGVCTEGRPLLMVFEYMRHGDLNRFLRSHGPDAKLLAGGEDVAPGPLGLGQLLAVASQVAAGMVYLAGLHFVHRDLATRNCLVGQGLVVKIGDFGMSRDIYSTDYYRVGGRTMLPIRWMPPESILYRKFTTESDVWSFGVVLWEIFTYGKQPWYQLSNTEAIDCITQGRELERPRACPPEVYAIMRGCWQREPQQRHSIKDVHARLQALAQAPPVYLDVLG
Assay: In vitro TrkA inhibitory activity using TR-FRET assay
Assay type: biochemical
Conditions: 5 ng TrkA, 500 μM ATP, both bounds given in nm, read-out: TrkA inhibitory activity in-vitro IC50
Method: Determination of In Vitro TrkA Inhibitory Activity Using TR-FRET Assay
Compounds were screened in the TR-FRET assay with TrkA kinase. 5 ng of TrkA [Upstate, USA] kinase was used for assay. The compound was incubated with the kinase for 30 minutes at 20-35° C. After the incubation, substrate mix [40 nM Ultra light poly GT (Perkin Elmer, USA) and 500 μM ATP] was added. The above reaction was stopped by the addition of 40 mM EDTA after 30 minutes. The Eu-labelled antiphospho-tyrosine antibody [Perkin Elmer, USA] was added at 0.5 nM and the fluorescence emission at 615 nm/665 nm [excitation at 340 nm] was measured. The compounds were initially screened at 100 nM, 1 μM and 10 μM concentrations. The potent compounds with >25% inhibition at 1 μM of TrkA were taken for the full dose response studies. The final DMSO concentration in the assay was […]. For IC50 determination, ⅓^rd serial dilution was made from the 20 mM DMSO stock solution. 2 μl of these were transferred to the test wells containing 20 μl reaction mixture [Total reaction volume 22 μl]. The fluorescence was measured in Perkin Elmer Wallac 1420 Multilabel Counter Victor 3. The IC50 was determined by fitting the dose response data to a sigmoidal curve fitting equation using GraphPad Prism software version 5.
Compound `CN1CCN(S(=O)(=O)NC(=O)c2cnn3ccc(N4CCC[C@@H]4c4cc(F)ccc4F)cc23)CC1` [Example 86, (R)-5-(2-(2,5-difluorophenyl)pyrrolidin-1-yl)-N-((4-methylpiperazin-1-yl)sulfonyl)pyrazolo[1,5-a]pyridine-3-carboxamide] has an IC50 of 0.1 to 0.5 µM.
`O=C(NS(=O)(=O)C1CC1)c1cnn2ccc(N3CCC[C@@H]3c3cc(F)ccc3F)cc12` [Example 5, (R)-N-(cyclopropylsulfonyl)-5-(2-(2,5-difluorophenyl)pyrrolidin-1-yl)pyrazolo[1,5-a]pyridine-3-carboxamide] showed an IC50 of 0.1 to 0.5 µM.
For `O=C(NS(=O)(=O)c1ccc(-n2cncn2)nc1)c1cnn2ccc(N3CCC[C@@H]3c3cc(F)ccc3F)cc12` [Example 27, (R)-N-((6-(1H-1,2,4-triazol-1-yl)pyridin-3-yl)sulfonyl)-5-(2-(2,5-difluorophenyl)pyrrolidin-1-yl)pyrazolo[1,5-a]pyridine-3-carboxamide], the IC50 was 0.1 to 0.5 µM.
With `Cc1nc(C)c(S(=O)(=O)NC(=O)c2cnn3ccc(N4CCC[C@@H]4c4cc(F)ccc4F)cc23)s1` [Example 20, (R)-5-(2-(2,5-difluorophenyl)pyrrolidin-1-yl)-N-((2,4-dimethylthiazol-5-yl)sulfonyl) pyrazolo[1,5-a]pyridine-3-carboxamide] the IC50 was 0.1 to 0.5 µM.
For `O=C(NS(=O)(=O)c1cc(Cl)sc1Cl)c1cnn2ccc(N3CCC[C@@H]3c3cc(F)ccc3F)cc12` [Example 32, (R)-N-((2,5-dichlorothiophen-3-yl)sulfonyl)-5-(2-(2,5-difluorophenyl)pyrrolidin-1-yl) pyrazolo[1,5-a]pyridine-3-carboxamide], the IC50 was 0.1 to 0.5 µM.
With `CCC1(S(=O)(=O)NC(=O)c2cnn3ccc(N4CCC[C@@H]4c4cc(F)ccc4F)cc23)CC1` [Example 36, (R)-5-(2-(2,5-difluorophenyl)pyrrolidin-1-yl)-N-((1-ethylcyclopropyl)sulfonyl) pyrazolo[1,5-a]pyridine-3-carboxamide] the IC50 was 0.1 to 0.5 µM.
`CC(C)(C)S(=O)(=O)NC(=O)c1cnn2ccc(N3CCC[C@@H]3c3cc(F)cc(F)c3)cc12` [Example 66, (R)-N-(tert-butylsulfonyl)-5-(2-(3,5-difluorophenyl)pyrrolidin-1-yl)pyrazolo[1,5-a]pyridine-3-carboxamide] gave an IC50 of 0.1 to 0.5 µM.

Same assay, conditions: 5 ng TrkA, 500 μM ATP, lower bound in nm [sic], upper bound in μM, read-out: TrkA inhibitory activity in-vitro IC50
`COCCOc1cc(F)cc([C@H]2CCCN2c2ccn3ncc(C(=O)NS(=O)(=O)C(C)(C)C)c3c2)c1` [Example 67, (R)-N-(tert-butylsulfonyl)-5-(2-(3-fluoro-5-(2-methoxyethoxy)phenyl)pyrrolidin-1-yl) pyrazolo[1,5-a]pyridine-3-carboxamide] showed an IC50 of 0.5 to 1 µM.
For `CN1C(=O)Cc2cc(S(=O)(=O)NC(=O)c3cnn4ccc(N5CCC[C@@H]5c5cc(F)ccc5F)cc34)ccc21` [Example 21, (R)-5-(2-(2,5-difluorophenyl)pyrrolidin-1-yl)-N-((1-methyl-2-oxoindolin-5-yl)sulfonyl) pyrazolo[1,5-a]pyridine-3-carboxamide], the IC50 was 0.5 to 1 µM.

Same assay, conditions: 5 ng TrkA, 500 μM ATP, read-out: TrkA inhibition in-vitro IC50
For `O=C(NS(=O)(=O)c1ccc(N2CC[C@H](O)C2)cc1)c1cnn2ccc(N3CCC[C@@H]3c3cc(F)ccc3F)cc12` [Example 8, 5-((R)-2-(2,5-difluorophenyl)pyrrolidin-1-yl)-N-((4-((S)-3-hydroxypyrrolidin-1-yl)phenyl)sulfonyl)pyrazolo[1,5-a] pyridine-3-carboxamide], the IC50 was ≤ 0.05 µM.
In the case of `CC(C)(C)S(=O)(=O)NC(=O)c1cnn2ccc(N3CCC[C@@H]3c3cncc(F)c3)cc12` [Example 44, (R)-N-(tert-butylsulfonyl)-5-(2-(5-fluoropyridin-3-yl)pyrrolidin-1-yl)pyrazolo[1,5-a] pyridine-3-carboxamide], the IC50 is reported as 0.05 to 0.1 µM.
For `O=C(NS(=O)(=O)c1ccc(N2CC[C@H](O)C2)cc1)c1cnn2ccc(N3CCC[C@@H]3c3cc(F)cc(F)c3)cc12` [Example 70, 5-((R)-2-(3,5-difluorophenyl)pyrrolidin-1-yl)-N-((4-((S)-3-hydroxypyrrolidin-1-yl)phenyl)sulfonyl)pyrazolo[1,5-a] pyridine-3-carboxamide], the IC50 was ≤ 0.05 µM.
In the case of `CN(CC1CC1)S(=O)(=O)NC(=O)c1cnn2ccc(N3CCC[C@@H]3c3cc(F)ccc3F)cc12` [Example 80, (R)-N-(N-(cyclopropylmethyl)-N-methylsulfamoyl)-5-(2-(2,5-difluorophenyl)pyrrolidin-1-yl)pyrazolo[1,5-a]pyridine-3-carboxamide], the IC50 is reported as ≤ 0.05 µM.
For `CC(C)(C)S(=O)(=O)NC(=O)c1cnn2ccc(N3CCC[C@@H]3c3cc(F)ccc3Cl)cc12` [Example 47, (R)-N-(tert-butylsulfonyl)-5-(2-(2-chloro-5-fluorophenyl)pyrrolidin-1-yl)pyrazolo[1,5-a]pyridine-3-carboxamide], the IC50 was 0.05 to 0.1 µM.

Same assay, conditions: 5 ng TrkA, 500 μM ATP, read-out: TrkA inhibitory activity in-vitro IC50
`O=C(NS(=O)(=O)C1CCNCC1)c1cnn2ccc(N3CCC[C@@H]3c3cc(F)ccc3F)cc12` [Example 17, (R)-5-(2-(2,5-difluorophenyl)pyrrolidin-1-yl)-N-(piperidin-4-ylsulfonyl)pyrazolo[1,5-a] pyridine-3-carboxamide] gave an IC50 of 1 to 10 µM.

Tested on: not listed separately
Assay: Metabolic stability using Human Liver Microsomes (HLM)
Assay type: in vitro ADME
Conditions: pooled human liver microsomes, compound 1 μM, 0.3 mg/ml microsomal protein, 1 mM NADPH
Method: Stability Protocol: Metabolic Stability Using Rat Liver Microsomes (RLM) and Human Liver Microsomes (HLM).
This assay was performed using pooled male rat liver microsomes (In-house prepared as per SOP), Pooled Human liver microsomes (XENOTECH; Batch No— H0630-1110189)). The 100 μl reaction contains the compounds at 1 μM, 0.3 mg/ml microsomal protein and both the co-factors (1 mM NADPH) in buffer and the mixture was incubated at different time points (0, 15, 30, 45, 60, & 90 minutes). The reaction was stopped by the addition of equal volume of acetonitrile containing internal standard (Telmesartin). The precipitated protein was removed by centrifugation and the supernatant were analyzed LC/MS-MS method. The percent parent compound remaining was quantified by analysis using following formula (% parent compound remaining=(peak area at Time x/peak area at T0)×100. The intrinsic clearance was calculated using the following formula. CLint,app: (0.693/in vitro t½)(incubation volume/mg of microsomal protein)(45 mg microsomal protein/gram of liver)(20^a g of liver/kg body weight) • a: 20 and 45 g of liver/kg of body weight were used for human and rat, respectively (Lu C et al., DMD, 2006). Bio-analysis: It was performed in Multiple Reaction Monitoring mode (negative mode) using Applied Biosystems API 4000 coupled to Agilent Technologies 1100 series HPLC on a reverse phase column (Zorbax Eclipse XDB C18, 50×4.6 mm, 5 μm). Celecoxib was used as internal standard both in in-vitro and in-vivo experiments. Mobile phase used 0.05% […] water and acetonitrile (10:90) with a flow rate of 0.6 ml/minute. The injection volume was kept as 10 μl.
In the case of `CC(C)(C)S(=O)(=O)NC(=O)c1cnn2ccc(N3CCC[C@@H]3c3cc(F)ccc3OC3CCOCC3)cc12` [Example 124, (R)-N-(tert-butylsulfonyl)-5-(2-(5-fluoro-2-((tetrahydro-2H-pyran-4-yl)oxy)phenyl)pyrrolidin-1-yl)pyrazolo[1,5-a]pyridine-3-carboxamide], the half-life at 1 μM is reported as > 1.33 h.
In the case of `COc1ccc(F)cc1[C@H]1CCCN1c1ccn2ncc(C(=O)NS(=O)(=O)C(C)(C)C)c2c1` [Example 42, (R)-N-(tert-butylsulfonyl)-5-(2-(5-fluoro-2-methoxyphenyl)pyrrolidin-1-yl)pyrazolo[1,5-a] pyridine-3-carboxamide], the half-life at 1 μM is reported as > 1.33 h.
With `NS(=O)(=O)NC(=O)c1cnn2ccc(N3C[C@@H](F)C[C@@H]3c3cccc(F)c3)c(F)c12` [Example 107, 4-fluoro-5-((2R,4S)-4-fluoro-2-(3-fluorophenyl)pyrrolidin-1-yl)-N-sulfamoylpyrazolo[1,5-a]pyridine-3-carboxamide] the half-life at 1 μM was > 1.33 h.
In the case of `CCN(C)S(=O)(=O)NC(=O)c1cnn2ccc(N3CCCC3c3cc(F)cc4c3OCCCO4)cc12` (single isomer, unassigned) [Example 96, N-(N-ethyl-N-methylsulfamoyl)-5-(2-(8-fluoro-3,4-dihydro-2H-benzo[b][1,4]dioxepin-6-yl)pyrrolidin-1-yl)pyrazolo[1,5-a]pyridine-3-carboxamide], the half-life at 1 μM is reported as > 1.33 h.
For `CC1(S(=O)(=O)NC(=O)c2cnn3ccc(N4CCC[C@@H]4c4cc(F)ccc4F)cc23)CC1` [Example 38, (R)-5-(2-(2,5-difluorophenyl)pyrrolidin-1-yl)-N-((1-methylcyclopropyl)sulfonyl)pyrazolo[1,5-a] pyridine-3-carboxamide], the half-life at 1 μM was > 1.33 h.
With `CCN(C)S(=O)(=O)NC(=O)c1cnn2ccc(N3CCC[C@@H]3c3cc(F)cc(O[C@@H]4CCOC4)c3)cc12` [Example 106, N-(N-ethyl-N-methylsulfamoyl)-5-((R)-2-(3-fluoro-5-(((R)-tetrahydrofuran-3-yl)oxy)phenyl)pyrrolidin-1-yl)pyrazolo[1,5-a]pyridine-3-carboxamide] the half-life at 1 μM was > 1.33 h.
With `CC(C)S(=O)(=O)NC(=O)c1cnn2ccc(N3C[C@@H](F)C[C@@H]3c3cccc(F)c3)c(F)c12` [Example 122, 4-fluoro-5-((2R,4S)-4-fluoro-2-(3-fluorophenyl)pyrrolidin-1-yl)-N-(isopropylsulfonyl) pyrazolo[1,5-a]pyridine-3-carboxamide] the half-life at 1 μM was > 1.33 h.
In the case of `CC(C)(C)S(=O)(=O)NC(=O)c1cnn2ccc(N3C[C@@H](F)C[C@@H]3c3cccc(F)c3)c(F)c12` [Example 121, N-(tert-butylsulfonyl)-4-fluoro-5-((2R,4S)-4-fluoro-2-(3-fluorophenyl)pyrrolidin-1-yl)pyrazolo[1,5-a]pyridine-3-carboxamide], the half-life at 1 μM is reported as > 1.33 h.

Source: patent publication US10047087B2, “Substituted pyrazolo[1,5-A] pyridine as tropomyosin receptor kinase (TrK) inhibitors” (Dr. Reddy's Laboratories Ltd., priority 2011, dated 2018)
